Results reported in US8372840B2, “Potassium channel blockers” (Xention Limited, priority 2008, dated 2013).

Target: T1, human Kv1.3 (Homo sapiens, UniProt P22001)
T1 construct: expressed in transfected cells; host or cells: stably transfected cells grown in medium for CHO cells
Test: Kv1.3 Autopatch Electrophysiology (whole cell patch-clamp, stably transfected CHO cells)
Format: cell-based
Details: CHO, compound 1 μM, step to +30 mV for 500 ms, inhibition of total charge relative to control, room temperature, read-out: hKv1.3 % inh.
Experimental: Cells stably transfected with cDNA for human Kv1.3 (in pcDNA3.1) were grown in Ex-cell 302 serum-free medium for CHO cells, supplemented with 10 μl/ml [100×] glutamine, 500 μg/ml G418 ([…]), and 1% HT supplement (50×, hypoxanthine and thymidine). Compounds were tested on these cells using the AutoPatch technology in whole cell mode.
The external bathing solution contained (in mM): 150 NaCl, 10 KCl, 1 MgCl2, 3 CaCl2, 10 HEPES, pH 7.4 with NaOH. Patch pipettes were filled with an electrode solution of composition (in mM): 100 K-Gluconate, 20 KCl, 1 MgCl2, 1 CaCl2, 10 HEPES, 11 EGTA, 5 ATP-Na2, 2 Glutathione pH 7.2 with KOH.
Compounds were dissolved in DMSO (100%) and made up in the external bather at a concentration of 1 μM immediately prior to use. All experiments were conducted at room temperature.
A cell suspension (10 ml), with a density of 6×10^6 cells, was aliquoted into a 15 ml centrifuge tube and stored at 4° C. before use. Prior to use a tube was taken and centrifuged at 1000 rpm for 4 mins at room temperature. The supernatant was then discarded, leaving a cell pellet at the bottom of the tube. The pellet was then resuspended using 1 ml of cold (4° C.), filtered (0.22 μm), 0.05% BSA/bather solution (0.05 g BSA/100 ml bather). The bottom of the tube was manually agitated followed by gentle tituration. The cell suspension was then placed in the AutoPatch™ temperature controlled cell-hotel at 14° C. and regularly titurated.
A length of Teflon capillary tubing was dipped into the cell suspension solution, and a column of fluid was taken up by negative pressure. The column of fluid was in electrically connectivity with a Ag/AgCl reference electrode. Borosilicate glass patch pipettes (from 1.5 mm OD, thin-walled filamented, GC150-TF capillary glass, Harvard) were pulled using a DMZ pipette puller (Zeitz Instruments), and were back-filled using the internal pipette solution, being careful that no bubbles remained at the tip or in the body of the pipette. Patch pipettes typically had resistances of 2.5-3.5 MΩ. Once filled, the pipette tip and a proportion of the shaft (˜15 mm) were dipped into Sigmacote (Sigma). The recording pipettes were placed in a multiwell array and mounted on the AutoPatch™ machine. Automated patch-clamping and drug-application was initiated by the operator, but thereafter AutoPatch.exe continued the experiment providing that pre-set conditions and criteria were satisfied.
Whole cell patch-clamp recordings were made using the AutoPatch™ rig, which incorporated an EPC9 or EPC10 amplifier (HEKA, Germany) under control of Pulse software (v8.54 or v8.76, HEKA, Germany), a cell applicator, automated drug application system (DAS), valve controller (VF1) and a suction device all at room temperature. This equipment was completely under the control of AutoPatch.exe and operator intervention was only made when there was a requirement to refill the bather reservoirs or to prevent the loss of a cell due to a technical error.
Qualification stages prior to perfusion and drug application ensured that the observed current met the criteria for the experiment. Cells were continuously perfused with external solution at a flow rate of ˜2 ml/minute.
Electrophysiology voltage-step protocols and analysis of data was performed as follows. Data were sampled at 5 kHz, and filtered with a −3 dB bandwidth of 2.5 kHz. Cells were held at a voltage of −80 mV. Currents were evoked by a voltage step to +30 mV for 500 ms in duration applied every 15 s. Online analysis of the hKv1.3 current during the application of compounds was performed by the Pulse (v8.54 or v8.76, HEKA, Germany), Excel (Microsoft, USA) and AutoPatch™ software, with the total charge measured during the whole of voltage step Inhibition of charge movement in the presence of drug was calculated relative to control.

T1 sequence (P22001 whole entry): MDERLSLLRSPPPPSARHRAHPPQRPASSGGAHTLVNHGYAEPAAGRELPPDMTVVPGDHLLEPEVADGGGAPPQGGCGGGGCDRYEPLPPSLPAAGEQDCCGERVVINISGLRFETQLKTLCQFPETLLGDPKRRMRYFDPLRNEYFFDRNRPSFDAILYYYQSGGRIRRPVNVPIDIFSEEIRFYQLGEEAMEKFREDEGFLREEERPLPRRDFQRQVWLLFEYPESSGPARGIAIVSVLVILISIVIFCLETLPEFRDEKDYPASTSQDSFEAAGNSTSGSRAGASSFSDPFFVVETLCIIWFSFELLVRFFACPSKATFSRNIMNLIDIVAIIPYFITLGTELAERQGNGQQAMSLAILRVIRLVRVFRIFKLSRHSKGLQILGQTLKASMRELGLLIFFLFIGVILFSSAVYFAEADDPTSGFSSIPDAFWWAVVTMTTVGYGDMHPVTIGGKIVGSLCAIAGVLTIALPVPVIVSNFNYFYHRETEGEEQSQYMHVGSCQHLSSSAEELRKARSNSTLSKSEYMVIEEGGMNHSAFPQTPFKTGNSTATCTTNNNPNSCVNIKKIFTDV

| Compound | inhibition at 1 µM |
| --- | --- |
| Cn1ccc(S(=O)(=O)N(Cc2ccccc2)c2cccc(N3CCNC3=O)c2)n1 [Example 43, 1-Methyl-1H-pyrazole-3-sulfonic acid benzyl-[3-(2-oxo-imidazolidin-1-yl)-phenyl]-amide] | 72% |

Same assay, conditions: compound 1 μM, step to +30 mV for 500 ms, inhibition of total charge relative to control, room temperature

| Compound | hKv1.3 % inh. |
| --- | --- |
| 1-Methyl-1H-imidazole-4-sulfonic acid benzyl-[3-(4-phenyl-piperazin-1-yl)-phenyl]-amide [Example 13] | 41% |
| 1-Methyl-1H-pyrazole-3-sulfonic acid (4-chloro-benzyl)-[4-fluoro-3-(2-oxo-pyrrolidin-1-yl)-phenyl]-amide [Example 37] | 53% |
| 1-Methyl-1H-pyrazole-3-sulfonic acid benzyl-[3-(2-oxo-pyrrolidin-1-yl)-phenyl]-amide [Example 39] | 74% |

Target: hKv1.5 (Homo sapiens, UniProt P22460)
Test: Kv1.5 Autopatch Electrophysiology (whole cell patch-clamp)
Format: cell-based
Details: compound 1 μM, step to 0 mV for 1000 ms, total charge, room temperature (22-24° C.)
Experimental: The external bathing solution contained (in mM): 150 NaCl, 10 KCl, […], 3 MgCl2, 1 CaCl2, 10 HEPES, pH 7.4. Patch pipettes were filled with an electrode solution of composition (in mM): 160 KCl, 0.5 MgCl2, 10 HEPES, 1 EGTA, pH 7.4 with KOH.
Compounds were dissolved in DMSO (100%) and made up in the external bather at a concentration of 1 μM. All experiments were conducted at room temperature (22-24° C.).
A cell suspension (10 ml), with a density of 100,000 cells/ml, was aliquoted into a 15 ml centrifuge tube and transferred to an incubator (37° C., 5% CO2) for approximately one hour before use. Following 60 min incubation, a tube was taken and centrifuged at 1000 rpm for 4 mins at room temperature. 9.5 ml supernatant was thence discarded, leaving a cell pellet at the bottom of the tube. The pellet was then resuspended using 100 μl of cold (4° C.), filtered (0.22 μm), 0.2% BSA/bather solution (0.02 g BSA/10 ml bather). The bottom of the tube was manually agitated gently until the solution became cloudy with cells. The 100 μl cell resuspension solution was then stored on the bench at 4° C. (using a Peltier-based temperature control device) until used.
A length of capillary glass (1B150E-4, WPI) was dipped into the cell suspension solution, such that ˜3 cm column of fluid was taken up by capillary action. A Ag/AgCl wire was dropped into the non-dipped end of the capillary also. The outside of the solution-filled end of the capillary was then dried and the capillary was loaded into the AutoPatch™
Borosilicate glass patch pipettes (from 1.5 mm OD, thin-walled filamented, GC150-TF capillary glass, Harvard) were pulled using a DMZ pipette puller (Zeitz Instruments), and were back-filled using the internal pipette solution, being careful that no bubbles remain at the tip or in the body of the pipette. Patch pipettes typically had resistances of 2.3-3.5 MΩ. Once filled, the pipette tip and a proportion of the shaft (˜15 mm) were dipped into Sigmacote (Sigma). The recording pipette was then loaded into the AutoPatch™. Automated patch-clamping was initiated by the operator, but thereafter AutoPatch.exe continued the experiment providing that pre-set conditions and criteria were satisfied.
Whole cell patch-clamp recordings were made using the AutoPatch™ rig, which incorporated an EPC9 amplifier (HEKA, Germany) under control of Pulse software (v8.54, HEKA, Germany), a motion controller with 2 translators (Newport, UK), valve controller (VF1) and a c-level suction device all at room temperature (22-24° C.). This equipment was completely under the control of AutoPatch.exe and operator intervention was only made when there was a requirement to refill the drug reservoirs or to prevent the loss of a cell due to a technical error. Cells with an Rseries greater than 18 MΩ were discounted from the experiment.
Qualification stages prior to perfusion and drug application ensured that the observed current met the criteria for the experiment. Only those cells with an IK>500 pA were used for experiments. Cells were continuously perfused with external solution at a flow rate of 1.8-2 ml/minute. […] Online analysis of the hKv1.5 current during the application of compounds was performed by the AutoPatch™ software. Voltage-step protocols and analysis of data was performed as described for conventional electrophysiology.
Electrophysiology voltage-step protocols and analysis of data was performed as follows. Data was sampled at 5 kHz, and filtered with a −3 dB bandwidth of 2.5 kHz. Cells were held at a voltage of −80 mV. Currents were evoked to a voltage step for 1000 ms in duration at 0 mV every 5 s. Currents were analysed using Pulsefit software (v8.54, HEKA, Germany), with the total charge measured during the whole of the voltage step. All other plots were produced using Igor Pro (WaveMetrics).

Sequence of hKv1.5 (P22460 whole entry): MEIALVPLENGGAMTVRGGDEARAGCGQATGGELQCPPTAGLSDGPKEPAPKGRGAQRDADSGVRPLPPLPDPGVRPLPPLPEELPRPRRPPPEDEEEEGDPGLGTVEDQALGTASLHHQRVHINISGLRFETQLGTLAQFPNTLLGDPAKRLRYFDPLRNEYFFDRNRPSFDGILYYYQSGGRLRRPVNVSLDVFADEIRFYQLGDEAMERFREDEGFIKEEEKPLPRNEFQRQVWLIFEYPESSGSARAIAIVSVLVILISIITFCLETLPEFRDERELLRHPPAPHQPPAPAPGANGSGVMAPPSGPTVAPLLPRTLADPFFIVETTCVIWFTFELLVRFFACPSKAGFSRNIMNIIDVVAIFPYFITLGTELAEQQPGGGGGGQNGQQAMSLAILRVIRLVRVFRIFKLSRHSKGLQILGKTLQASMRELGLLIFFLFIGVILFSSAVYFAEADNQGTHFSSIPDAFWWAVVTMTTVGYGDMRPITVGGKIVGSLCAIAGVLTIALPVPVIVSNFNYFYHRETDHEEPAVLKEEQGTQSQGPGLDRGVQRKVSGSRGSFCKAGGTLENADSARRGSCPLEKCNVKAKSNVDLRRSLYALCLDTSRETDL

| Compound | hKv1.5 % inh. |
| --- | --- |
| 2-Methyl-2H-pyrazole-3-sulfonic acid (4-chloro-benzyl)-[3-(2-oxo-pyrrolidin-1-yl)-phenyl]-amide [Example 26] | 43% |
| N-Benzyl-3-cyano-N-[3-(2-oxo-pyrrolidin-1-yl)-phenyl]-benzenesulfonamide [Example 22] | 82% |
| 1-Methyl-1H-pyrazole-4-sulfonic acid benzyl-[3-(2-oxo-pyrrolidin-1-yl)-phenyl]-amide [Example 24] | 41% |
| 3-Oxo-3,4-dihydro-2H-benzo[1,4]oxazine-6-sulfonic acid (4-chloro-benzyl)-[3-(2-oxo-pyrrolidin-1-yl)-phenyl]-amide [Example 29] | 72% |
| Pyridine-3-sulfonic acid (4-chloro-benzyl)-(3-morpholin-4-yl-phenyl)-amide [Example 35] | 84% |
| N-(4-Chloro-benzyl)-3-cyano-N-(3-morpholin-4-yl-phenyl)-benzenesulfonamide [Example 30] | 97% |

Same assay, conditions: compound 1 μM, step to 0 mV for 1000 ms, total charge, room temperature (22-24° C.), read-out: hKv1.5 % inh.

| Compound | inhibition at 1 µM |
| --- | --- |
| N#Cc1cccc(S(=O)(=O)N(Cc2ccccc2)c2cccc(N3CCOCC3)c2)c1 [Example 20, N-Benzyl-3-cyano-N-(3-morpholin-4-yl-phenyl)-benzenesulfonamide] | 90% |
| CN1CCOc2cc(S(=O)(=O)N(Cc3ccccc3)c3cccc(N4CCOCC4)c3)ccc21 [Example 21, 4-Methyl-3,4-dihydro-2H-benzo[1,4]oxazine-7-sulfonic acid benzyl-(3-morpholin-4-yl-phenyl)-amide] | 72% |
| CN1CCOc2cc(S(=O)(=O)N(Cc3ccc(Cl)cc3)c3cccc(N4CCCC4=O)c3)ccc21 [Example 27, 4-Methyl-3,4-dihydro-2H-benzo[1,4]oxazine-7-sulfonic acid (4-chloro-benzyl)-[3-(2-oxo-pyrrolidin-1-yl)-phenyl]-amide] | 84% |
| CN1CCOc2cc(S(=O)(=O)N(Cc3ccc(Cl)cc3)c3cccc(N4CCOCC4)c3)ccc21 [Example 32, 4-Methyl-3,4-dihydro-2H-benzo[1,4]oxazine-7-sulfonic acid (4-chloro-benzyl)-(3-morpholin-4-yl-phenyl)-amide] | 64% |
| O=C1COc2ccc(S(=O)(=O)N(Cc3ccccc3)c3cccc(N4CCCC4=O)c3)cc2N1 [Example 17, 3-Oxo-3,4-dihydro-2H-benzo[1,4]oxazine-6-sulfonic acid benzyl-[3-(2-oxo-pyrrolidin-1-yl)-phenyl]-amide] | 45% |

Results, then the compound that gave them:

| inhibition at 1 µM | Compound |
| --- | --- |
| 49% | Cn1cc(S(=O)(=O)N(Cc2ccc(Cl)cc2)c2cccc(N3CCCC3=O)c2)cn1 [Example 28, 1-Methyl-1H-pyrazole-4-sulfonic acid (4-chloro-benzyl)-[3-(2-oxo-pyrrolidin-1-yl)-phenyl]-amide] |
| 47% | Cn1nccc1S(=O)(=O)N(Cc1ccc(Cl)cc1)c1cccc(N2CCOCC2)c1 [Example 31, 2-Methyl-2H-pyrazole-3-sulfonic acid (4-chloro-benzyl)-(3-morpholin-4-yl-phenyl)-amide] |
| 39% | Cc1nc(S(=O)(=O)N(Cc2ccc(Cl)cc2)c2cccc(N3CCCC3=O)c2)cn1C [Example 25, 1,2-Dimethyl-1H-imidazole-4-sulfonic acid (4-chloro-benzyl)-[3-(2-oxo-pyrrolidin-1-yl)-phenyl]-amide] |
| 68% | O=C1COc2ccc(S(=O)(=O)N(Cc3ccc(Cl)cc3)c3cccc(N4CCOCC4)c3)cc2N1 [Example 34, 3-Oxo-3,4-dihydro-2H-benzo[1,4]oxazine-6-sulfonic acid (4-chloro-benzyl)-(3-morpholin-4-yl-phenyl)-amide] |
| 58% | Cn1cc(S(=O)(=O)N(Cc2ccc(Cl)cc2)c2cccc(N3CCOCC3)c2)cn1 [Example 33, 1-Methyl-1H-pyrazole-4-sulfonic acid (4-chloro-benzyl)-(3-morpholin-4-yl-phenyl)-amide] |
